# Experimental data published in patent EP2796042A1, “Compounds promoting plant growth” (Albert-Ludwigs-Universität Freiburg, priority 2013, dated 2014).
# What was measured:
# [1] = test system: Arabidopsis thaliana; assay: Root growth and development of seedlings on AM medium with exogenous compound; assay type: in vivo; settings: for SULF inhibition on plant development: 100µM compound with 100µM sulfanilamide (Fig. 10F), 6 day-old; for plant-root waving: 100µM supplemented media (Fig. 10B)
# Procedure: To get more insights into the pABA role on plant development, plants were grown in presence of pABA. […] Arabidopsis root waving occurs when plants are grown at the surface of an agar plate that is slightly tilted.
# [2] = test system: ADCS-RNAi seedlings; assay: Rescue of root growth arrest after conditional down regulation of GAT-ADCS (estradiol-inducible RNAi); assay type: in vivo, Arabidopsis thaliana; settings: EST-induced; 50µM compound for 6 days (Fig. 9C)
# [3] = test system: Lex::UGT75B; assay: Rescue of root defects of estradiol-induced Lex::UGT75B plants; assay type: in vivo, Arabidopsis thaliana
# Description: Plant growth relies on auxin gradients maintained by series of auxin influx carriers of the AUXIN RESISTANT 1/ Like AUX1 (AUX/LAX) family, efflux facilitators such as ABCB/multi-drug resistance/P-glycoprotein (ABCB/MDR/PGP), and PIN-FORMED (PIN) proteins. PIN-proteins subcellular localization is highly dynamic and influenced by various internal and external signals, thereby directing and redirecting the intercellular fluxes of auxin[25]. […] During plant response to gravity, auxin transport through AtPIN2 plays a crucial role and pin2 mutants are unable to establish lateral auxin gradient after gravistimulation and therefore are agravitropic.
# [4] = test system: Arabidopsis seedlings (Wild type Col 0); assay: Safener activity on seedlings grown in presence of inhibitory concentrations of auxin (IAA); assay type: in vivo, Arabidopsis thaliana; settings: for root growth in the presence of inhibitory concentrations of IAA: 100 µM compound, 2 µM IAA
# Procedure: It was tested whether benzoic acid derivatives can counteract the activity of natural auxins (IAA) (Figure 17 and Figure 18). The experiments were carried out as described for Figure 10.
# [5] = test system: Zea mays; assay: Plants growing in soil and watered with a solution containing pABA; assay type: in vivo; settings: watered with 1 mM pABA; n=10
# Procedure: Maize seeds were germinated in Petri® dishes containing deionized-water-humidified Whatman® paper. Germinations of equal size were transferred in pots (one per pot) containing a mixture of soil and vermiculite and watered with tap water for 30 days. Then watering was stopped for 48h until soil looked dried at the surface of the pot.
# [6] = test system: Arabidopsis seedlings; assay: Root response to gravity after rotating agar plates by 135°; assay type: in vivo, Arabidopsis thaliana; settings: plates rotated to 135° for 3h (Fig. 10G)
# [7] = test system: Arabidopsis thaliana; assay: Plants growing in soil and watered or sprayed with a solution of pABA; assay type: in vivo
# Procedure: Arabidopsis plants were grown from seeds in pots in a mixture of soil and vermiculite and watered with tap water for 15 days. Then watering was stopped for 48h until soil looked dried at the surface of the pot. A total of 4 trails containing 51 pots each were divided into 2 parts. […] The other trails were sprayed with solutions described above. […] Plants growing in soil and watered or sprayed with a solution containing pABA
# [8] = test system: Lycopersicum esculentum; assay: Plants growing in agar plates supplemented with pABA; assay type: in vivo; settings: 200 µM pABA in agar plates, vs untreated plants
# Description: (§1) They were 3 replicates for each experiment.
# [9] = test system: Arabidopsis thaliana; assay: as above; assay type: in vivo; settings: 200 µM pABA in agar plates, vs untreated plants
# Description: as §1
# [10] = test system: Arabidopsis seedlings; assay: Activity of benzoic acid derivatives on root growth; assay type: in vivo, Arabidopsis thaliana; settings: AM supplemented with 100 µM compound
# [11] = test system: adcs-2; assay: Homozygous adcs2 rescue experiment with pABA; assay type: in vivo, Arabidopsis thaliana; settings: opened siliques transplanted on medium supplemented with pABA
# Description: adcs T-DNA mutants (SALK_095283 and SALK_034215) were in Arabidopsis thaliana (L.) Heynh., ecotype Columbia (Col-0) background and ugt75b (AY027263) in Landsberg erecta (Ler).
# [12] = test system: Poplar explants; assay: Induction of adventitious roots on poplar explants; assay type: in vivo; settings: 200 µM pABA
# Description: Since pABA can stimulate adventitious development in Arabidopsis, we tested whether pABA could also promotes adventitious development on poplar, a commercially important tree.
# [13] = cited from earlier work
smiles,measurement,setting,value
"Nc1nc2c(c(=O)[nH]1)N(C=O)C(CNc1ccc(C(=O)N[C@@H](CCC(=O)O)C(=O)O)cc1)CN2 (stereo partly drawn) [5-FTHF, 5-formyl-tetrahydrofolate, reference compound]",SULF inhibition on plant development,[1],reverted
same,plant-root waving,[1],not
same,phenocopy of the activity of pABA,[1]; applied at similar concentrations as pABA,did not phenocopy the activity of pABA
same,rescue of arrested roots,[2],could be rescued
same,root growth recovery upon strong UGT75B induction,"[3]; 20µM EST, 400µM compound (Fig. 14)",very poorly
same,effect of supplementation on growth defects of β-estradiol-induced UGT75B plants,"[3]; weak induction 0.1µM EST, 200µM 5-FTHF (Fig. 13E)",had no effect
same,root growth in the presence of inhibitory concentrations of IAA,[4],fully restored root growth
"CCN(CC)CCOC(=O)c1ccc(N)cc1 [Procaine, procaine, reference compound]",root growth in the presence of inhibitory concentrations of IAA,[4],fully restored root growth
"Nc1cccc(C(=O)O)c1 [mABA, 3-aminobenzoic acid]",root growth in the presence of inhibitory concentrations of IAA,[4],fully restored root growth
"Nc1ccc(C(=O)O)cc1 [pABA, 4-aminobenzoic acid]",SULF inhibition on plant development,[1],reverted
same,plant-root waving,[1],suppressed
same,development of LR and AR,[1]; 100µM supplemented media (Fig. 10C),induces development of LR and AR
same,root hair length,[1]; pABA treatment (Fig. 10D-E),increases root hair length
same,Concentrations that inhibited root growth and promoted lateral and adventitious roots development as well as root hair growth,"[1]; wild type seedlings on AM, aerial part not affected",greater than 50 µM
same,Number of leaves,[5],6.58 ±0.14
same,Root weight,[5],7.85 ± 0.49 g
same,rescue of arrested roots,[2],could be rescued
same,gravitropic response of Arabidopsis primary root,[6],increases gravitropic response
same,greater fresh weight than plant sprayed with only water,[7]; foliar application of 1 mM pABA,17.54%
same,"fresh weight of Arabidopsis aerial parts, Sprayed","[7]; sprayed with 1 mM pABA, n=51","0,62 ± 0,02"
same,"fresh weight of Arabidopsis aerial parts, Watered","[7]; watered with 1 mM pABA, n=51","1,08 ± 0,03"
same,induced fresh weight of Arabidopsis aerial parts on average,"[7]; watering with 1 mM pABA, vs water",3.84%
same,adventitious roots,[8]; after 10 days,more adventitious roots
same,lateral roots,[8]; after 10 days,more lateral roots
same,root hairs,[8]; six days after germination,longer root hairs
same,adventitious roots,[9]; after 10 days,more adventitious roots
same,lateral roots,[9]; after 10 days,more lateral roots
same,root hairs,[9]; six days after germination,longer root hairs
same,root growth-promoting activity,[10],significant root growth-promoting activity
same,development of embryos arrested at the globular stage,[11],could develop further
same,Adventitious root number,[12]; n=20,6.15
same,Entire plant fresh weight,[12]; n=20,216 ± 23.69 mg
same,Number of leaves,[12]; n=20,8.09±0.59
same,Roots fresh weight,[12]; n=20,68.68 mg
same,"Roots fresh weight, percentage in brackets",[12]; presumably increase vs control,46%
same,more adventitious than control,[12]; vs control,129%
same,growth-inhibitory effects of IAA,[4]; 1 µM IAA + 100µM pABA,could antagonize
same,root growth in the presence of inhibitory concentrations of IAA,[4],fully restored root growth
same,pKa value,[13],about 4.9
